The results in this text go back to patent publication US8524809B2, “Low odor compositions and methods to attain low odor compositions” (Rohm and Haas Company, priority 2010, dated 2013).

Each structure is given as a SMILES string.

One assay addresses T1, CALBL (Moesziomyces antarcticus, UniProt P41365).
T1 construct: purchased Novozymes, Bagsvaerd, Denmark Novozym CALB L
T1 sequence (P41365 26-342): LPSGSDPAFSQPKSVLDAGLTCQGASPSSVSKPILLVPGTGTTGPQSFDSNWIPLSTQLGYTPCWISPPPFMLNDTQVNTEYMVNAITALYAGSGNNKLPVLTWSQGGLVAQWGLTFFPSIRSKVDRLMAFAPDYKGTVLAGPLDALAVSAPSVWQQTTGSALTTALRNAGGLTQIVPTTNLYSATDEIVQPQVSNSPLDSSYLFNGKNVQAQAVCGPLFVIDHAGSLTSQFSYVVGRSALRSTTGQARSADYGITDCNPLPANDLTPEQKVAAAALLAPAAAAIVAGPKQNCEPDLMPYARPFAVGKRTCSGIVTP
The assay can be described thus: Small molecule inhibitors: EA content of latex containing CALBL. The note with it: for Inhibition of CALBL (in words): inhibitor 1.0%. The format is biochemical. The method, then: (§1) In another embodiment, deactivation of the carboxylesterase enzyme may be achieved by the addition of a small molecule inhibitor, as shown for CALBL and N51032 in Tables 13 and 14, below. […] The small molecule inhibitor and CALBL were added simultaneously at the time t=0. In the following tables, the potential small molecule inhibitors are as follows: […]

A further assay has as its system N51032. Put plainly: Small molecule inhibitors: EA content of latex containing N51032. Format: biochemical. How it is done: as §1
A short description of assay [1]: Nucleophilic reagents: aldehyde content in vinyl acetate-acrylic latex. The note with it: Rovace 9900 pre-treated 1 week with 50 ppm N51032; reagent 50 ppm, 55° C. 2 hours, then 1 week RT.
Protocol: The latex samples were first treated with a carboxylesterase enzyme (50 ppm of N51032) for 1 week to remove residual esters and also to convert residual vinyl acetate to acetaldehyde (the esterase produces vinyl alcohol, which rearranges to form acetaldehyde). Each sample was then stirred at 55° C. for 2 hours with the reagent shown below in Table 26 (added at a level of 50 ppm), and then left at room temperature for 1 week before evaluating levels of aldehyde in the headspace composition (GC-MS, 33° C.).
Where [2] appears, read: AC-261 latex, CALBL 60 ppm, inhibitor 1.0% added simultaneously (Control: none), 0 hr.
The mark [3] stands for this setting: AC-261 latex, CALBL 60 ppm, inhibitor 1.0% added simultaneously (Control: none), 24 hr.
Setting [4] is: AC-261 latex, CALBL 60 ppm, inhibitor 1.0% added simultaneously (Control: none), 72 hr.
Setting [5] is: AC-261 latex, CALBL 60 ppm, inhibitor 1.0% added simultaneously (Control: none), 168 hr.
Where [6] appears, read: CALBL 6 ppm, inhibitor 0.001%, 0 hr.
The mark [7] stands for this setting: CALBL 6 ppm, inhibitor 0.001%, 120 hr.
The mark [8] stands for this setting: CALBL 6 ppm, inhibitor 0.001%, 168 hr.
The mark [9] stands for this setting: CALBL 6 ppm, inhibitor 0.001%, 384 hr.
Setting [10] is: CALBL 6 ppm, inhibitor 0.001%, 480 hr.
Where [11] appears, read: CALBL 6 ppm, inhibitor 0.01%, 0 hr.
[12] abbreviates: CALBL 6 ppm, inhibitor 0.01%, 120 hr.
Where [13] appears, read: CALBL 6 ppm, inhibitor 0.01%, 168 hr.
Setting [14] is: CALBL 6 ppm, inhibitor 0.01%, 384 hr.
Where [15] appears, read: CALBL 6 ppm, inhibitor 0.01%, 480 hr.
The mark [16] stands for this setting: CALBL 6 ppm, inhibitor 0.1%, 0 hr.
Setting [17] is: CALBL 6 ppm, inhibitor 0.1%, 120 hr.
[18] abbreviates: CALBL 6 ppm, inhibitor 0.1%, 168 hr.
Where [19] appears, read: CALBL 6 ppm, inhibitor 0.1%, 384 hr.
The mark [20] stands for this setting: CALBL 6 ppm, inhibitor 0.1%, 480 hr.
Where [21] appears, read: AC-261 latex, N51032 50 ppm, inhibitor 1% added simultaneously (Control: none), 0 hr.
Where [22] appears, read: AC-261 latex, N51032 50 ppm, inhibitor 1% added simultaneously (Control: none), 24 hr.
Setting [23] is: AC-261 latex, N51032 50 ppm, inhibitor 1% added simultaneously (Control: none), 72 hr.
The mark [24] stands for this setting: AC-261 latex, N51032 50 ppm, inhibitor 1% added simultaneously (Control: none), 168 hr.
Where [25] appears, read: N51032 5 ppm, inhibitor 0.001%, 0 hr.
Setting [26] is: N51032 5 ppm, inhibitor 0.001%, 120 hr.
Setting [27] is: N51032 5 ppm, inhibitor 0.001%, 168 hr.
[28] abbreviates: N51032 5 ppm, inhibitor 0.001%, 384 hr.
The mark [29] stands for this setting: N51032 5 ppm, inhibitor 0.001%, 480 hr.
The mark [30] stands for this setting: N51032 5 ppm, inhibitor 0.01%, 0 hr.
[31] abbreviates: N51032 5 ppm, inhibitor 0.01%, 120 hr.
The mark [32] stands for this setting: N51032 5 ppm, inhibitor 0.01%, 168 hr.
Where [33] appears, read: N51032 5 ppm, inhibitor 0.01%, 384 hr.
[34] abbreviates: N51032 5 ppm, inhibitor 0.01%, 480 hr.
Setting [35] is: N51032 5 ppm, inhibitor 0.1%, 0 hr.
[36] abbreviates: N51032 5 ppm, inhibitor 0.1%, 120 hr.
[37] abbreviates: N51032 5 ppm, inhibitor 0.1%, 168 hr.
Setting [38] is: N51032 5 ppm, inhibitor 0.1%, 384 hr.
Where [39] appears, read: N51032 5 ppm, inhibitor 0.1%, 480 hr.

Consider `CC(C)CB(O)O` [2MPB, (2-methylpropyl) boronic acid], for which the “EA content” value was 105 ppm at CALBL (setting [2]); 95 ppm at CALBL (setting [3]); 102 ppm at CALBL (setting [4]); 104 ppm at CALBL (setting [5]); 44 at CALBL (setting [6]); 32 on CALBL (setting [7]). The EA content stood at 23 on CALBL (setting [8]); 10 on CALBL (setting [9]); 8 on CALBL (setting [10]); 43 on CALBL (setting [11]); 28 at CALBL (setting [12]); 24 on CALBL (setting [13]). Also, the EA content at CALBL (setting [14]) stood at 13; on CALBL (setting [15]) it was 11; on CALBL (setting [16]) it was 43; on CALBL (setting [17]) it was 34; on CALBL (setting [18]), 25; on CALBL (setting [19]), 15. Moreover, the EA content at CALBL (setting [20]) was found to be 13; in the assay on N51032 (setting [21]), 117 ppm; with N51032 (setting [22]), 92 ppm; in the assay with N51032 (setting [23]) it was 99 ppm; in the assay on N51032 (setting [24]), 79 ppm; in the assay on N51032 (setting [25]), 42 ppm. For the same compound, the EA content in the assay with N51032 (setting [26]) worked out at 24 ppm; with N51032 (setting [27]) it was 22 ppm; in the assay with N51032 (setting [28]), 8 ppm; in the assay with N51032 (setting [29]) it was 6 ppm; in the assay on N51032 (setting [30]) it was 37 ppm; in the assay on N51032 (setting [31]), 25 ppm. Further, the EA content in the assay on N51032 (setting [32]) stood at 19 ppm; in the assay with N51032 (setting [33]), 6 ppm; with N51032 (setting [34]), 5 ppm; in the assay with N51032 (setting [35]), 43 ppm; with N51032 (setting [36]), 34 ppm; in the assay on N51032 (setting [37]), 27 ppm. Also, the results for the EA content in the assay with N51032 (setting [38]) and in the assay on N51032 (setting [39]) were 22 ppm and 20 ppm, respectively. Also, the “Inhibition of CALBL (in words)” value on CALBL (CALBL 60 ppm) is “effective in inhibiting the carboxylesterase enzyme”.

`Nc1ccc(CO)cc1` [4ABA, 4-aminobenzyl alcohol]: in assay [1], the “Acetaldehyde Headspace Concentration” value came to 151 ppm, the “Acetone Headspace Concentration” value came out at 245 ppm, the “Ethanol Headspace Concentration” value came out at 20 ppm and the “butanal Headspace Concentration” value came out at 1 ppm. Besides, in assay [1], the “l-butanol Headspace Concentration” value is 48 ppm and the “t-butanol Headspace Concentration” value is given as 257 ppm.

For `NNc1ccc(C(=O)O)cc1` [4HB, 4-hydrazino benzoic acid], in assay [1], the “Acetaldehyde Headspace Concentration” value is 14 ppm, the “Acetone Headspace Concentration” value came to 247 ppm, the “Ethanol Headspace Concentration” value is recorded as 20 ppm and the “butanal Headspace Concentration” value worked out at 0 ppm. Also, in assay [1], the “l-butanol Headspace Concentration” value is on record as 48 ppm and the “t-butanol Headspace Concentration” value is 258 ppm.

As for `OB(O)C1CCCCC1` [CBA, cyclohexylboronic acid], the “EA content” value is listed as 102 ppm on CALBL (setting [2]); 70 ppm on CALBL (setting [3]); 55 ppm at CALBL (setting [4]); 24 ppm on CALBL (setting [5]); 117 ppm in the assay with N51032 (setting [21]); 96 ppm in the assay with N51032 (setting [22]). In addition, the “EA content” value in the assay with N51032 (setting [23]) amounted to 109 ppm; in the assay on N51032 (setting [24]), 79 ppm. For the same compound, the “Inhibition of CALBL (in words)” value at CALBL (CALBL 60 ppm) was “some ability to inhibit the CALBL enzyme”.

For the compound `CC(C)(C)CB(O)O` [NPB, Neopentylboronic acid], the “EA content” value at CALBL (setting [2]) was 107 ppm; on CALBL (setting [3]) it was 21 ppm; at CALBL (setting [4]) it was 0 ppm; at CALBL (setting [5]) it was 0 ppm; with N51032 (setting [21]), 116 ppm; with N51032 (setting [22]) it was 49 ppm. Also, the figures for the “EA content” value in the assay on N51032 (setting [23]) and in the assay on N51032 (setting [24]) were 30 ppm and 6 ppm, respectively. Besides, at CALBL (CALBL 60 ppm), the “Inhibition of CALBL (in words)” value is “completely ineffective as an inhibitor of CALBL”.

On to `OB(O)c1ccccc1` [PBA, phenylboronic acid], for which the “EA content” value at CALBL (setting [2]) came to 108 ppm; at CALBL (setting [3]), 103 ppm; at CALBL (setting [4]) it was 116 ppm; at CALBL (setting [5]), 108 ppm; at CALBL (setting [6]), 48; at CALBL (setting [7]), 30. For the same compound, the EA content at CALBL (setting [8]) was 25; on CALBL (setting [9]), 11; at CALBL (setting [10]) it was 9; on CALBL (setting [11]), 44; at CALBL (setting [12]), 32; at CALBL (setting [13]), 26. Further, the EA content on CALBL (setting [14]) came to 15; at CALBL (setting [15]), 15; at CALBL (setting [16]) it was 39; at CALBL (setting [17]) it was 35; at CALBL (setting [18]), 35; on CALBL (setting [19]), 29. For the same compound, the EA content was 29 on CALBL (setting [20]); 116 ppm with N51032 (setting [21]); 116 ppm with N51032 (setting [22]); 111 ppm in the assay with N51032 (setting [23]); 117 ppm in the assay with N51032 (setting [24]); 46 ppm in the assay on N51032 (setting [25]). The EA content in the assay on N51032 (setting [26]) was 36 ppm; with N51032 (setting [27]), 34 ppm; in the assay on N51032 (setting [28]), 22 ppm; with N51032 (setting [29]) it was 19 ppm; in the assay with N51032 (setting [30]) it was 45 ppm; in the assay on N51032 (setting [31]), 41 ppm. The EA content amounted to 39 ppm with N51032 (setting [32]); 34 ppm with N51032 (setting [33]); 34 ppm in the assay with N51032 (setting [34]); 46 ppm in the assay on N51032 (setting [35]); 34 ppm in the assay on N51032 (setting [36]); 41 ppm in the assay on N51032 (setting [37]). In addition, the figures for the EA content in the assay on N51032 (setting [38]) and in the assay on N51032 (setting [39]) were 38 ppm and 39 ppm, respectively. The “Inhibition of CALBL (in words)” value on CALBL (CALBL 60 ppm) is on record as “effective in inhibiting the carboxylesterase enzyme”. Also, the “Inhibition of N51032 (in words)” value with N51032 (inhibitor 1%, N51032 50 ppm) is listed as “effective in inhibiting the carboxylesterase enzyme”.

With `Nc1ccc(N)cc1` [PPD, p-phenylene diamine], in assay [1], the “Acetaldehyde Headspace Concentration” value is recorded as 0 ppm, the “Acetone Headspace Concentration” value was 279 ppm, the “Ethanol Headspace Concentration” value was determined as 25 ppm and the “butanal Headspace Concentration” value was 0 ppm. Further, in assay [1], the “l-butanol Headspace Concentration” value is reported as 58 ppm and the “t-butanol Headspace Concentration” value turned out to be 304 ppm.

As for `CCCCCCCCCCS(=O)(=O)[O-].[Na+]` [S-1-DS, Sodium 1-decane-sulfonate], the “EA content” value at CALBL (setting [2]) is 114 ppm; on CALBL (setting [3]) it was 73 ppm; at CALBL (setting [4]) it was 36 ppm; at CALBL (setting [5]) it was 17 ppm; in the assay on N51032 (setting [21]) it was 115 ppm; in the assay with N51032 (setting [22]), 73 ppm. Also, the “EA content” value in the assay with N51032 (setting [23]) was 79 ppm; in the assay on N51032 (setting [24]), 77 ppm. Further, the “Inhibition of CALBL (in words)” value at CALBL (CALBL 60 ppm) was “some ability to inhibit the CALBL enzyme”.

For `NCCNCCNCCN` [TET, triethylene tetramine], in assay [1], the “Acetaldehyde Headspace Concentration” value came to 42 ppm, the “Acetone Headspace Concentration” value is 262 ppm, the “Ethanol Headspace Concentration” value was 23 ppm and the “butanal Headspace Concentration” value turned out to be 1 ppm. For the same compound, in assay [1], the “l-butanol Headspace Concentration” value is recorded as 64 ppm and the “t-butanol Headspace Concentration” value is reported as 278 ppm.
